Experiments:
Assay type in all cases: in vivo
[1] = test system: Kochia (Kochia scoparia); experiment: Test A preemergence; settings: Preemergence; for Plant response rating, Kochia: 125 g ai/ha, visual injury after approximately 10 d, 0 to 100 scale where 0 is no effect and 100 is complete control; for Kochia plant response rating (0 to 100 scale, 0 is no effect, 100 is complete control): 500 g ai/ha, visual injury approx. 10 d
Source text: (§1) Seeds of plant species selected from barnyardgrass (Echinochloa crus-galli), Kochia (Kochia scoparia), ragweed (common ragweed, Ambrosia elatior), ryegrass, Italian (Italian ryegrass, Lolium multiflorum), crabgrass, large (Digitaria sanguinalis), giant foxtail (Setaria faberii), green foxtail (Setaria viridis), morningglory (Ipomoea spp.), pigweed (Amaranthus retroflexus), velvetleaf (Abutilon theophrasti), wheat (Triticum aestivum), and corn (Zea mays) were planted into a blend of loam soil and sand and treated preemergence with a directed soil spray using test chemicals formulated in anon-phytotoxic solvent mixture which included a surfactant.
(§2) At the same time, plants selected from these crop and weed species and also blackgrass (Alopecurus myosuroides), and Galium (catchweed bedstraw, Galium aparine) were planted in pots containing the same blend of loam soil and sand and treated with postemergence applications of test chemicals formulated in the same manner. Plants ranged in height from 2 to 10 cm and were in the one- to two-leaf stage for the postemergence treatment. Treated plants and untreated controls were maintained in a greenhouse for approximately 10 d, after which time all treated plants were compared to untreated controls and visually evaluated for injury. Plant response ratings, summarized in Table A, are based on a 0 to 100 scale where 0 is no effect and 100 is complete control. A dash (-) response means no test result.

[2] = test system: barnyardgrass (Echinochloa crus-galli); experiment: Test A preemergence; settings: Preemergence; for Plant response rating, Barnyardgrass: 125 g ai/ha, visual injury after approximately 10 d, 0 to 100 scale where 0 is no effect and 100 is complete control; for Barnyardgrass plant response rating (0 to 100 scale, 0 is no effect, 100 is complete control): 500 g ai/ha, visual injury approx. 10 d
Source text: as §1, §2

[3] = test system: giant foxtail (Setaria faberii); experiment: Test A preemergence; settings: Preemergence; for Plant response rating, Foxtail, Giant: 125 g ai/ha, visual injury after approximately 10 d, 0 to 100 scale where 0 is no effect and 100 is complete control; for Foxtail, Giant plant response rating (0 to 100 scale, 0 is no effect, 100 is complete control): 500 g ai/ha, visual injury approx. 10 d
Source text: as §1, §2

[4] = test system: ryegrass, Italian (Italian ryegrass, Lolium multiflorum); experiment: Test A preemergence; settings: Preemergence; for Plant response rating, Ryegrass, Italian: 125 g ai/ha, visual injury after approximately 10 d, 0 to 100 scale where 0 is no effect and 100 is complete control; for Ryegrass, Italian plant response rating (0 to 100 scale, 0 is no effect, 100 is complete control): 500 g ai/ha, visual injury approx. 10 d
Source text: as §1, §2

[5] = test system: pigweed (Amaranthus retroflexus); experiment: Test A preemergence; settings: Preemergence; for Plant response rating, Pigweed: 125 g ai/ha, visual injury after approximately 10 d, 0 to 100 scale where 0 is no effect and 100 is complete control; for Pigweed plant response rating (0 to 100 scale, 0 is no effect, 100 is complete control): 500 g ai/ha, visual injury approx. 10 d
Source text: as §1, §2

[6] = test system: ragweed (common ragweed, Ambrosia elatior); experiment: Test A preemergence; settings: Preemergence; for Plant response rating, Ragweed: 125 g ai/ha, visual injury after approximately 10 d, 0 to 100 scale where 0 is no effect and 100 is complete control; for Ragweed plant response rating (0 to 100 scale, 0 is no effect, 100 is complete control): 500 g ai/ha, visual injury approx. 10 d
Source text: as §1, §2

[7] = test system: wheat (Triticum aestivum); experiment: Test A postemergence
Source text: as §1, §2

[8] = test system: Kochia (Kochia scoparia); experiment: Test A postemergence
Source text: as §1, §2

[9] = test system: barnyardgrass (Echinochloa crus-galli); experiment: Test A postemergence
Source text: as §1, §2

[10] = test system: giant foxtail (Setaria faberii); experiment: Test A postemergence
Source text: as §1, §2

[11] = test system: ryegrass, Italian (Italian ryegrass, Lolium multiflorum); experiment: Test A postemergence
Source text: as §1, §2

[12] = test system: Galium (catchweed bedstraw, Galium aparine); experiment: Test A postemergence
Source text: as §1, §2

[13] = test system: pigweed (Amaranthus retroflexus); experiment: Test A postemergence
Source text: as §1, §2

[14] = test system: blackgrass (Alopecurus myosuroides); experiment: Test A postemergence
Source text: as §1, §2

[15] = test system: corn (Zea mays); experiment: Test A postemergence
Source text: as §1, §2

[16] = test system: ragweed (common ragweed, Ambrosia elatior); experiment: Test A postemergence
Source text: as §1, §2

[17] = 125 g ai/ha, postemergence, visual rating after approx. 10 d, 0 to 100 scale (0 no effect, 100 complete control)
[18] = Postemergence, 500 g ai/ha, 0 to 100 scale where 0 is no effect and 100 is complete control

SMILES | Plant response rating, Kochia [1] | Kochia plant response rating (0 to 100 scale, 0 is no effect, 100 is complete control) [1] | Plant response rating, Barnyardgrass [2] | Barnyardgrass plant response rating (0 to 100 scale, 0 is no effect, 100 is complete control) [2] | Plant response rating, Foxtail, Giant [3] | Foxtail, Giant plant response rating (0 to 100 scale, 0 is no effect, 100 is complete control) [3] | Plant response rating, Ryegrass, Italian [4] | Ryegrass, Italian plant response rating (0 to 100 scale, 0 is no effect, 100 is complete control) [4] | Plant response rating, Pigweed [5] | Pigweed plant response rating (0 to 100 scale, 0 is no effect, 100 is complete control) [5] | Plant response rating, Ragweed [6] | Ragweed plant response rating (0 to 100 scale, 0 is no effect, 100 is complete control) [6] | Plant response rating, Wheat [7, 17] | Plant response rating, Wheat [7, 18] | Plant response rating, Kochia [8, 17] | Plant response rating, Kochia [8, 18] | Plant response rating, Barnyardgrass [9, 17] | Plant response rating, Barnyardgrass [9, 18] | Plant response rating, Foxtail, Giant [10, 17] | Plant response rating, Foxtail, Giant [10, 18] | other results
O=C1NCC(c2cccc(C(F)(F)F)c2)C1C(=O)Nc1ccccc1O (stereo not shown) [Compound 557] | 0 | 0 | 0 | 0 | 0 | 0 | 0 | 0 | 0 | 0 | 0 | 0 | 0 | 0 | 0 | 0 | 0 | 0 | 0 | 0 | Plant response rating, Ryegrass, Italian [11, 17]: 0; Plant response rating, Ryegrass, Italian [11, 18]: 0; Plant response rating, Galium [12, 17]: 0; Plant response rating, Galium [12, 18]: 0; Plant response rating, Pigweed [13, 17]: 0; Plant response rating, Pigweed [13, 18]: 0; Plant response rating, Blackgrass [14, 17]: 0; Plant response rating, Blackgrass [14, 18]: 0; Plant response rating, Corn [15, 17]: 0; Plant response rating, Corn [15, 18]: 0; Plant response rating, Ragweed [16, 17]: 0; Plant response rating, Ragweed [16, 18]: 0
CN1CC(c2ccc(Br)cc2)C(C(=O)Nc2ccccc2S(C)(=O)=O)C1=O (stereo not shown) [Compound 565] | 70 | 90 | 80 | 90 | 90 | 90 | 0 | 40 | 70 | 80 | 50 | 50 | 0 | 40 | 20 | 60 | 80 | 90 | 80 | 90 | Plant response rating, Ryegrass, Italian [11, 17]: 20; Plant response rating, Ryegrass, Italian [11, 18]: 30; Plant response rating, Galium [12, 17]: 60; Plant response rating, Galium [12, 18]: 60; Plant response rating, Pigweed [13, 17]: 20; Plant response rating, Pigweed [13, 18]: 60; Plant response rating, Blackgrass [14, 17]: 40; Plant response rating, Blackgrass [14, 18]: 60; Plant response rating, Corn [15, 17]: 0; Plant response rating, Corn [15, 18]: 20; Plant response rating, Ragweed [16, 17]: 0; Plant response rating, Ragweed [16, 18]: 50
CCc1cccc(C2CN(C)C(=O)C2C(=O)Nc2ccccc2F)c1 (stereo not shown) [Compound 567] | 60 | 80 | 100 | 100 | 100 | 100 | 60 | 80 | 20 | 40 | 50 | 60 | 30 | 60 | 20 | 50 | 90 | 100 | 90 | 90 | Plant response rating, Ryegrass, Italian [11, 17]: 70; Plant response rating, Ryegrass, Italian [11, 18]: 70; Plant response rating, Galium [12, 17]: 40; Plant response rating, Galium [12, 18]: 50; Plant response rating, Pigweed [13, 17]: 20; Plant response rating, Pigweed [13, 18]: 20; Plant response rating, Blackgrass [14, 17]: 60; Plant response rating, Blackgrass [14, 18]: 80; Plant response rating, Corn [15, 17]: 70; Plant response rating, Corn [15, 18]: 90; Plant response rating, Ragweed [16, 17]: 0; Plant response rating, Ragweed [16, 18]: 0
Cc1c(F)cccc1NC(=O)C1C(=O)N(C)CC1c1cccc(C(F)(F)F)c1 (stereo not shown) [Compound 573] | 70 | 80 | 90 | 100 | 90 | 100 | 80 | 90 | 40 | 80 | 0 | 50 | 70 | 70 | 50 | 60 | 90 | 100 | 90 | 90 | Plant response rating, Ryegrass, Italian [11, 17]: 70; Plant response rating, Ryegrass, Italian [11, 18]: 90; Plant response rating, Galium [12, 17]: 60; Plant response rating, Galium [12, 18]: 70; Plant response rating, Pigweed [13, 17]: 30; Plant response rating, Pigweed [13, 18]: 40; Plant response rating, Blackgrass [14, 17]: 70; Plant response rating, Blackgrass [14, 18]: 70; Plant response rating, Corn [15, 17]: 80; Plant response rating, Corn [15, 18]: 90; Plant response rating, Ragweed [16, 17]: 20; Plant response rating, Ragweed [16, 18]: 60
CN1CC(c2cccc(C(F)(F)F)c2)C(C(=O)Nc2cccc(Cl)c2F)C1=O (stereo not shown) [Compound 574] | 40 | 70 | 90 | 90 | 90 | 90 | 40 | 80 | 20 | 50 | 0 | 0 | 40 | 70 | 30 | 60 | 90 | 90 | 80 | 80 | Plant response rating, Ryegrass, Italian [11, 17]: 50; Plant response rating, Ryegrass, Italian [11, 18]: 70; Plant response rating, Galium [12, 17]: 40; Plant response rating, Galium [12, 18]: 50; Plant response rating, Pigweed [13, 17]: 20; Plant response rating, Pigweed [13, 18]: 40; Plant response rating, Blackgrass [14, 17]: 60; Plant response rating, Blackgrass [14, 18]: 70; Plant response rating, Corn [15, 17]: 60; Plant response rating, Corn [15, 18]: 80; Plant response rating, Ragweed [16, 17]: 0; Plant response rating, Ragweed [16, 18]: 0
